{"source": "patent US20220033360A1", "about": "“OPHTHALMIC COMPOSITIONS AND METHODS FOR THE TREATMENT OF SKIN DISEASES AND EYE DISEASES” (Cellix Bio Private Limited, priority 2018, published 2022)", "key": {"human 5-HT2B receptors": {"target": "human 5-HT2B receptors (Homo sapiens, UniProt P41595)", "sequence (P41595 whole entry)": "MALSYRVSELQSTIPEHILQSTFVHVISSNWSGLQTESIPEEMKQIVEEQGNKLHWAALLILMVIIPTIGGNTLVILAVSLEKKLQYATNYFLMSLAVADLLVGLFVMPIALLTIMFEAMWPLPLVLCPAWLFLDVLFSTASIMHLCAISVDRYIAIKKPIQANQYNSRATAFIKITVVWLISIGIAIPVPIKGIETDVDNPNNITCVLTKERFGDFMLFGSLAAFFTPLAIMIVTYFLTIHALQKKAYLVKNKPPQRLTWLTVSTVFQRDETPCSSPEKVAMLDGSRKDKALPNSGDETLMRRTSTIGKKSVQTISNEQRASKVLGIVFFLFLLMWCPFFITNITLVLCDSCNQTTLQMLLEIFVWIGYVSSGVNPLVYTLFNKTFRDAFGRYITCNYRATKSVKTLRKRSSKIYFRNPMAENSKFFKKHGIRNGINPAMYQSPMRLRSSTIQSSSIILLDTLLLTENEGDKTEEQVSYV", "test": "5-HT2B agonist assay, intracellular calcium (Fluo-3, FLIPR) in HEK-293 cells", "type": "cell-based", "settings": "HEK-293 cells expressing human 5-HT2B", "procedure": "5-HT2B receptors stably expressing HEK-293 cells were maintained in Dulbecco's modified Eagle's medium (DMEM) supplemented with 10% fetal bovine serum and 250 microgm·mL-1 G-418. HEK-293 cells expressing human 5-HT2B receptors were seeded in […] poly-D-lysine coated plates at a density of 50,000 cells·well-1 in DMEM containing 10% (v.v-1) dialyzed fetal bovine serum and 250 microgm·mL-1 G-418. After overnight incubation, the cells were washed three times with Hank's buffered saline solution containing 2 mM CaCl2), 10 mM HEPES and 2.5 mM probenecid. The cells were incubated with 2 microM Fluo-3 AM in Hank's buffered saline solution for 60 min at 37 C. The Fluo-3 loaded cells were then washed four times with Hank's buffered saline solution. Agonist-induced changes in intracellular calcium concentrations were determined at room temperature using a Fluorometric Imaging Plate Reader."}, "15-LO": {"system": "15-LO", "test": "Lipoxygenase inhibitor screening assay, cell-free, 15-LO with arachidonic acid as substrate", "type": "biochemical", "settings": "concentrations from 0.32 to 0.93 mM", "procedure": "(§1) CLX-162C-C01 in concentrations ranging from 0.001 to 1.2 mM was added to 5-LO or 15-LO in the screening assay buffer, respectively, and the LO inhibitor screening assay was immediately started by addition of the corresponding substrates and running for 5 min. The inhibitory capacity of CLX-162C-C01 against lipoxygenases was studied in a cell-free system consisting of CLX-162C-C01 and 5-LO or 15-LO together with appropriate substrates, respectively."}, "[1]": {"test": "Oxidative capacity of UCP (oxidation of methionine to methionine sulfoxide), cell-free", "settings": "0.1 to 10 mM, preincubation 60 min, methionine sulfoxide formation", "procedure": "The influence of CLX-162C-C01 on the oxidative capacity of UCP was studied by preincubating UCP (2 mg/ml H2O) with various concentrations of CLX-162C-C01 (0.1, 1, and 10 mM) for 60 min at room temperature in parallel with the controls. To assay the oxidative capacity of UCP, aliquots of 50 microlit (100 microgm UCP) of particle suspension taken from the preincubations were suspended in 1 ml H2O and incubated in the presence of 100 microM methionine for 2 h at 25° C. Formation of methionine sulfoxide was measured fluorometrically after precolumn derivatization with o-phthaldialdehyde and HPLC. […] The oxidative potential of the particles was subsequently determined by their capacity to oxidize […] sulfoxide. […] CLX-162C-C01 antioxidative potency to prevent the oxidation of methionine by agglomerates of ultrafine carbon particles (UCPs). Particulate stimulants such as UCP and zymosan activate lipid mediator synthesis and to induce oxidative stress in macrophages."}, "5-LO": {"system": "5-LO", "test": "Lipoxygenase inhibitor screening assay, cell-free, 5-LO with linoleic acid as substrate", "type": "biochemical", "procedure": "as §1"}}, "note": "Read-outs that look alike come from different tables or passages of the source.", "data": [{"smiles": "Cc1cc(C(C)(C)C)c(O)c(C)c1CC1=NCCN1", "note": "[CLX-162C-C01, 2-(4-(tert-butyl)-3-hydroxy-2,6-dimethylbenzyl)-4,5-dihydro-1Himidazol-1-ium (R)-5-(1,2-dithiolan-3-yl) pentanoate]", "values": [{"measurement": "EC50", "setting": "human 5-HT2B receptors; read-out: EC50, 5-HT2B agonist effect", "value": 14.2, "unit": "nM"}, {"measurement": "EC50", "setting": "human 5-HT2B receptors; read-out: pEC50 (-log EC50), 5-HT2B agonist effect (converted)", "value": 490, "unit": "nM"}, {"measurement": "inhibition of the activity of 15-LO", "setting": "15-LO", "value": "only marginally affected"}, {"measurement": "effect on oxidative capacity of UCP", "setting": "[1]", "value": "did not reduce"}, {"measurement": "inhibition of the activity of 5-LO", "setting": "5-LO; concentrations from 0.32 to 0.93 mM", "value": "strongly inhibited"}, {"measurement": "IC50", "setting": "5-LO; linoleic acid substrate, 5 min, read-out: 50% inhibition of 5-LO", "value": 320000, "unit": "nM"}]}]}
